This note sets out measurements from article PMC12276035, “Novel Para‐Phenylenediamine‐Based Derivatives as Receptor Tyrosine Kinase‐like Orphan Receptor 1 (ROR1) Inhibitors: An In Vitro Preliminary Characterization” (Chemmedchem, 2025).

Test [1] deals with T1, ROR1 kinase domain (Homo sapiens, UniProt Q01973).
T1 construct: recombinant human ROR1 protein (aa 453‐783, His&GST Tag); His; GST; purchased Elabscience
T1 sequence (Q01973 453-783): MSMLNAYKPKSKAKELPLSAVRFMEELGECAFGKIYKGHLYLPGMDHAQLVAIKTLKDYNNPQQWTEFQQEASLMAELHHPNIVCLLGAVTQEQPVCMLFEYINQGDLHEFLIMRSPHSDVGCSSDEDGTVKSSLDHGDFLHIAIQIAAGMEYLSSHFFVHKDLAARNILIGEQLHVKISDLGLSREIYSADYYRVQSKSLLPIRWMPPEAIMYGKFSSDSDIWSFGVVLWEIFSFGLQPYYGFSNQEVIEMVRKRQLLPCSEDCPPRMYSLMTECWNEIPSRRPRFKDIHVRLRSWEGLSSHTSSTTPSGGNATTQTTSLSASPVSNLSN
Nature of the test: SPR assay on ROR1 kinase domain. It counts as binding. As for the experimental part: We performed molecular docking experiments to explore the binding mode of novel derivatives using the crystallographic structure of the protein co‐complexed with ponatinib, a known inhibitor of ROR1 (PDB code: 6TU9).^[ [30] ^] […] To evaluate the affinity of the synthesized molecules (10, 13, 14, 17–21, 26–29) for the protein counterpart, SPR assay was performed against kinase domain ROR1. Protein immobilization was achieved using the amide coupling method, and the molecules were tested at 10 different concentrations, ranging from 0 to 100 μM. Ponatinib was used as a positive control^[ [30] ^] (Table 1 ).
SPR spectroscopy analyses were conducted to evaluate the binding affinity of the synthesized compounds against ROR1 receptor using a Biacore T200 optical biosensor equipped with research‐grade CM5 sensor chips (Cytiva, Marlborough, USA). ROR1 kinase domain was immobilized on the CM5 sensor chip surface following standard amine‐coupling protocols. Specifically, kinasic domain was immobilized at pH 4.5 10 mM CH3COONa using a flow rate of 10 μL min^−1, achieving a density of around 20 kRU.
For the experiments, surfaces of ROR1, along with an unmodified reference surface, were prepared for simultaneous analyses. […] The compounds were injected in a series of concentrations (1:2 dilution, 10 different concentrations), spanning from 0 to 100 μM. The concentration series were prepared in 96‐well plates. SPR experiments were conducted at 25 °C, with a flow rate of 20 μL min^−1, allowing for 90 s of association monitoring and 400 s of dissociation monitoring. Changes in mass, reflective of the binding response, were recorded as resonance units (RU). K D values were determined using the Biaevaluation software performing a global fit of the double‐referenced association and dissociation data to a 1:1 interaction model^[ [43] ^] (see Figure S38, Supporting Information).

Test [2] deals with SH‐SY5Y cells. Nature of the test: MTT cell viability assay, SH‐SY5Y. It counts as cell-based. The following applies: Homo sapiens, cytotoxicity, treated for 72 h, read-out: EC50 ± SD SH‐SY5Y. As for the experimental part:
(§1) Cytotoxicity studies, assessing the activity of the synthetized compounds, were performed only on the molecules showing the best binding profile in the SPR assay. MTT test was performed on two cell lines known for overexpressing ROR1, particularly MTT assays were conducted on JeKo‐1 (human mantle cell lymphoma) and SH‐SY5Y (neuroblastoma), exposing them to different concentrations of compounds for 72 h (Table 2 ). […] This increased effectiveness is likely due to the high expression of the target protein in leukemia and other hematologic malignancies. […] A key structural difference in 18 and 19 compared to active compounds is the absence of the trifluoromethyl group on the aromatic ring. Indeed, the removal of the trifluoromethyl group (18) or the incorporation of an electron‐donating substituent (19) alters the interaction with the ATP‐binding pocket.
The neuroblastoma SH‐SY5Y cells, a human neuroblastoma cell line of neural crest origin, were obtained from ATCC and were grown in DMEM supplemented with 10% v/v fetal bovine serum, 2 mM L‐glutamine, 100 U mL^−1 penicillin, and 0.1 mg mL^−1 streptomycin.
(§2) Cell viability was established by measuring mitochondrial metabolic activity with MTT. In brief, SH‐SY5Y (20 × 10^3 cells/well) and JeKo‐1 (10 × 10^3 cells/well) were plated into 96‐well plates for 24 h, then the compounds (1.56–50 μM) were added. […], cells were replaced with a fresh medium containing 0.5 mg mL^−1 MTT.^[ [45] ^] Cells were incubated for 1–3 h at 37 °C, then the medium was discarded, and formazan blue crystals in the cells dissolved with 100 μL per well of a solution containing isopropanol/HCl 0.1 M. The absorbance was measured at 570 nm using a microplate reader (Multiskan Go, Thermo Scientific, Waltham, MA, USA). Cell viability was expressed as a percentage relative to the untreated cells cultured in medium with 0.1% DMSO and set to 100%, whereas 10% DMSO was used as positive control and set to 0% of viability. The EC50 values were calculated using GraphPad Prism 8.0 software by nonlinear regression of dose‐response inhibition.

Test [3] deals with JeKo‐1 cells. Nature of the test: MTT cell viability assay, JeKo‐1. It counts as cell-based. Conditions: Homo sapiens, cytotoxicity, treated for 72 h, read-out: EC50 ± SD JeKo‐1. The procedure:
as §1
The JeKo‐1 mantle cell lymphoma (MCL) cell line, derived from mantle cell lymphoma of B‐cell lineage, was obtained from ATCC and was grown in RPMI supplemented with 10% v/v fetal bovine serum, 2 mM L‐glutamine, 100 U mL^−1 penicillin, and 0.1 mg mL^−1 streptomycin.
as §2

Test [4] deals with JeKo‐1 cells. Briefly: Annexin V‐FITC/PI staining apoptosis, flow cytometry. Conditions: JeKo‐1, 20 μM, 72 h, early and late apoptosis. It counts as cell-based, human. The source says: This observation aligns with previous studies reporting that ROR1 is highly expressed in B‐cell malignancies, including mantle cell lymphoma, where it plays a crucial role in survival signaling and resistance to apoptosis.^[ [10], [32] ^] Given the higher susceptibility of JeKo‐1 cells to the inhibitor, we selected this model for further apoptotic analysis. However, for completeness, apoptotic data for the SH‐SY5Y cell line are also provided in the Supporting Information (Figure S39, Supporting Information). Specifically, cells were incubated with compounds 17, 20, or 29 (20 μM) for 72 h and a flow cytometry analysis using Annexin V/PI staining was performed. After treatment, a very strong increase in the apoptotic response was observed, in both early and late apoptotic populations compared to the negative control (Figure 4 ). […] These findings are in accordance with the literature and further support the potential of ROR1 inhibition in promoting cell death in mantle cell lymphoma.^[ [33] ^]
Figure 4 Proapoptotic activity of compounds 17, 20, and 29 (20 μM) on JeKo‐1 cells treated for 72 h. A) Representative flow cytometry plots using Annexin V‐FITC/PI staining for apoptosis. B) Related quantitative analysis is reported. Data are expressed as a percentage of live, apoptotic, and necrotic cells. Results are shown as mean ± standard deviation (SD) from three independent experiments. *** denote p < 0.001 versus Ctrl.
Apoptosis of the cells was assessed using annexin V‐FITC/PI reagents. JeKo‐1 cells (60 × 10^3 cells/well) were seeded into 24‐well plates and incubated for 72 h with compounds (20 and 10 μM). After treatment, the collected cells were resuspended in a 100 μL assay buffer, then 5 Annexin V‐FITC and 1 PI reagents were added following incubation for 20 min at room temperature according to the manufacturer's protocol (Dead Cell Apoptosis Kits with Annexin V for Flow Cytometry, Thermo Fisher Scientific). Cells were analyzed with a Becton Dickinson FACScan flow cytometer using the Cell Quest software, version 4 (Franklin Lakes, NJ, USA).^[ [46] ^]

Setting [5] is: SPR, KD ± SD, 0 to 100 μM, 25 °C, n.b. = no binding.
Setting [6] is: SPR, KD ± SD, 0 to 100 μM, 25 °C, n.b. = no binding, read-out: Kinase domain KD.

Like-named read-outs stand apart in the source and are kept apart here.

As to `N#CCCNc1ccc(NC(=O)NCc2ccc(-c3ccccc3)cc2)c(C(F)(F)F)c1` [Compound 10], the “Kinase domain KD” value in test [1] (setting [5]) was “n.b”.

On to `O=C(NCc1ccc(-c2ccccc2)cc1)Nc1ccc(NCc2ccncc2)cc1C(F)(F)F` [Compound 13], for which the “Kinase domain KD” value in test [1] (setting [5]) is reported as “n.b”.

Take `N#CCCNc1ccc(NC(=O)NCc2ccc(C(F)(F)F)cc2)cc1` [Compound 14]: the “Kinase domain KD” value in test [1] (setting [5]) is recorded as “n.b”.

`O=C(NCc1ccc(-c2ccccc2)cc1)Nc1ccc(NCC2CCNCC2)cc1` [Compound 18]: the Kd in test [1] (setting [6]) came to 18.4 ± 3.14 µM. Moreover, the EC50 in test [2] and in test [3] was > 50 µM in each case.

Consider `COc1cc(NCC2CCNCC2)ccc1NC(=O)NCc1ccc(-c2ccccc2)cc1` [Compound 19], for which the Kd in test [1] (setting [6]) was 15 ± 2.47 µM. The EC50 in test [2] and in test [3] was > 50 µM in each case.

As for `NCCCNc1ccc(NC(=O)NCc2ccc(-c3ccccc3)cc2)c(C(F)(F)F)c1` [Compound 20], the Kd in test [1] (setting [6]) was found to be 16.7 ± 2.86 µM. The EC50 is 14.2 ± 4.81 µM in test [2] and 11.3 ± 3.15 µM in test [3]. In test [4], this compound showed an apoptotic cells of 94.50 ± 3.12%.

As to `Nc1ccc(CNc2ccc(NC(=O)NCc3ccc(-c4ccccc4)cc3)c(C(F)(F)F)c2)cc1` [Compound 21], the “Kinase domain KD” value in test [1] (setting [5]) was “n.b”.

For `Nc1ccc(CNc2ccc(NS(=O)(=O)c3ccc(-c4ccccc4)cc3)c(C(F)(F)F)c2)cc1` [Compound 26], the “Kinase domain KD” value in test [1] (setting [5]) is “n.b”.

Turning to `O=S(=O)(Nc1ccc(NCC2CCNCC2)cc1C(F)(F)F)c1ccc(-c2ccccc2)cc1` [Compound 27], the “Kinase domain KD” value in test [1] (setting [5]) was “n.b”.

Consider `O=C(Nc1ccc(NCC2CCNCC2)cc1C(F)(F)F)c1ccc(-c2ccccc2)cc1` [Compound 28], for which the “Kinase domain KD” value in test [1] (setting [5]) is “n.b”.

Take `O=C(NCc1ccc(-c2ccccc2)cc1)Nc1ccc(NC2CCNCC2)cc1C(F)(F)F` [Compound 29]: the Kd in test [1] (setting [6]) worked out at 13.4 ± 1.92 µM. In addition, the EC50 in test [2] was 18.5 ± 2.65 µM; in test [3] it was 13.9 ± 2.75 µM. The same compound returned an apoptotic cells in test [4] of 73.15 ± 2.76%.

`Cc1ccc(C(=O)Nc2ccc(CN3CCN(C)CC3)c(C(F)(F)F)c2)cc1C#Cc1cnc2cccnn12` [Ponatinib, 3‐(2‐imidazo[1,2‐b]pyridazin‐3‐ylethynyl)‐4‐methyl‐N‐[4‐[(4‐methylpiperazin‐1‐yl)methyl]‐3‐(trifluoromethyl)phenyl]benzamide, reference compound] returned a Kd in test [1] of 2.9 ± 0.85 µM. Moreover, the EC50 in test [2] was found to be 4.25 ± 3.92 µM; in test [3], 1.69 ± 1.03 µM.
